These molecules were tested on Plasmodium falciparum (assay: GSK_TCMDC: Inhibition of Plasmodium falciparum 3D7 in whole erythrocytes, using parasite LDH activity as an index of growth.). Settings: Plasmodium falciparum, 3D7.
Assay type: functional, organism-based

Q: Which XC50 does the source give for `Nc1cc(/C=C/c2ccc([N+](=O)[O-])o2)nc2ccccc12` here?
A: 367 nM

Q: With `c1ccc(-c2nc(NCCCn3ccnc3)cc(-c3ccncc3)n2)cc1` as the molecule, how does the XC50 read?
A: 167 nM

Q: How did the XC50 turn out when `O=C(Cn1c(CCc2cccc(F)c2F)nc(=O)c2cccnc21)N(Cc1ccc(-c2ccc(C(F)(F)F)cc2)cc1)C1CCN(C2CCSCC2)CC1` was run?
A: 230 nM

Q: How did the XC50 turn out when `O=C(/C=C/c1ccc(Cl)c(Cl)c1)NCCCCCN1CCN(C(=O)Nc2ccc(Cl)c(C(F)(F)F)c2)CC1` was run?
A: 816 nM

Q: For `O=C(/C=C/c1ccc(Cl)c(Cl)c1)NCCCCCN1CCC(n2c(=O)[nH]c3ccccc32)CC1`, which XC50 is on record?
A: 869 nM

Q: `COc1ccc(-c2cnc(NCc3ccccc3)nc2)cc1CNC1CCN(C)CC1` was tested. Which XC50 did it give?
A: 782 nM

Q: `COc1ccccc1C(C)NCC(=O)Nc1cccc(C(=O)Nc2cccc(C(F)(F)F)c2)c1` (stereo unspecified) was tested. Which XC50 did it give?
A: 1530 nM

Q: For `CCc1cc2c(N)nc(N)nc2nc1-c1ccccc1`, which XC50 is on record?
A: 946 nM

Q: For `Oc1c(Br)cc2oc3c(c2c1CNCc1ccccc1)CCCC3`, which XC50 is on record?
A: 961 nM

Q: With `COc1cc2nc(N3CCC(CNC(=O)c4ccc(-c5ccc(C(=O)N(C)C)cc5)c(OCCO)c4)CC3)nc(N)c2cc1OC` as the molecule, how does the XC50 read?
A: 730 nM

Q: For `Cc1cc(=NN=Cc2cccc(F)c2)c2cccc(C)c2[nH]1`, which XC50 is on record?
A: 770 nM

Q: `COc1ccc2c(NCCc3ccccc3)cc(-c3ccccc3)nc2c1` was tested. Which XC50 did it give?
A: 987 nM

Q: For `CN1CCCCC1CCc1cc(C(=O)Nc2ccc(-c3ccc(O)cc3)cc2)ccc1O` (stereo unspecified), which XC50 is on record?
A: 1110 nM

Q: Which XC50 does the source give for `Fc1ccc2[nH]c3c(NCCN4CCCCC4)ncnc3c2c1` here?
A: 834 nM

Q: For `Cc1ccnc2nc(C(=O)Nc3cc(Cl)ccc3N3CCOCC3)nn12`, which XC50 is on record?
A: 1240 nM

Q: With `Cc1cc(NC(=O)NC(=N)N)ccc1Cl` as the molecule, how does the XC50 read?
A: 698 nM

Q: For `CC(C)Oc1ccc2c(c1)OC(c1ccccc1)(C(F)(F)F)NC2=O` (stereo unspecified), which XC50 is on record?
A: 136 nM

Q: `Cc1[nH]c(C)c(-c2csc3ccccc23)c(=O)c1Cl` was tested. Which XC50 did it give?
A: 1020 nM

Q: For `COC(=O)c1cccc(CNCc2ccc(-c3ccc(-c4nc5cccc(C)c5[nH]4)cc3)cc2)c1`, which XC50 is on record?
A: 283 nM

Q: Which XC50 does the source give for `NC[C@H](CC1CCCCC1)NC(=O)c1ccc(-c2ccnc3[nH]ccc23)s1` here?
A: 950 nM

Q: Which XC50 does the source give for `O=c1cc(NCCCNCc2ccc(C(F)(F)F)cc2F)[nH]c2ccccc12` here?
A: 956 nM

Q: How did the XC50 turn out when `CC1CN(CC(O)Cn2c3ccc(Br)cc3c3cc(Br)ccc32)CC(C)O1` (stereo unspecified) was run?
A: 776 nM

Q: `COc1cccc(NC(=O)CSc2nc(-c3ccccc3Cl)ns2)c1` was tested. Which XC50 did it give?
A: 814 nM

Q: With `CCCOc1ccc(-c2nonc2NC(=O)c2ccccc2OC)cc1OCCC` as the molecule, how does the XC50 read?
A: 858 nM

Q: `CNCCN(C)C(=O)Oc1c(Br)c(C)nc(C)c1-c1ccc(Oc2ccc(OC(F)(F)F)cc2)cc1` was tested. Which XC50 did it give?
A: 109 nM

Q: For `Cc1cc(C2CCN(CCCCNC(=O)c3ccc(-c4ccc(C(F)(F)F)cc4)cc3)CC2)c(C)cc1OCC#N`, which XC50 is on record?
A: 1010 nM

Q: For `CN(C)CCNCc1nc(-c2ccc3c(Nc4ccc(Oc5ccccc5)cc4)ccnc3c2)cs1`, which XC50 is on record?
A: 736 nM

Q: With `Cc1cccc(-c2nc(Nc3ccncc3)c3cc(N(C)C)ccc3n2)n1` as the molecule, how does the XC50 read?
A: 710 nM

Q: With `CS(=O)(=O)c1ccc(CCNCc2ccc(-c3cccc(-c4nc5ccccc5[nH]4)c3)cc2)cc1` as the molecule, how does the XC50 read?
A: 194 nM

Q: For `Clc1cnc2ccc3c(c2c1CCN1CCC(NCc2cc4c(cn2)OCCO4)CC1)OCCO3`, which XC50 is on record?
A: 718 nM

Q: Which XC50 does the source give for `CN1CCCC(CN2CCN(Cc3ccc(-c4ccc(-c5nc6ccccc6[nH]5)cc4)cc3)CC2)C1` (stereo unspecified) here?
A: 141 nM

Q: `COc1ccc(-c2cccc(NC(=O)c3cccc(C#N)c3)c2)cc1CN1CCC(O)CC1` was tested. Which XC50 did it give?
A: 990 nM

Q: `Cc1cc([N+](=O)[O-])ccc1N1CCN(CCCCNC(=O)c2ccc(NC(=O)c3ccc(Cl)cc3)cc2)CC1` was tested. Which XC50 did it give?
A: 887 nM

Q: `CCN(CC)/C(=N/C(=N)Nc1ccc(Cl)cc1)NCCCCCCCCN/C(=N\C(=N)Nc1ccc(Cl)cc1)N(CC)CC` was tested. Which XC50 did it give?
A: 403 nM

Q: `CNC(=O)C1Cc2c([nH]c3ccc(Br)cc23)C2(CCN(CCc3ccccc3)CC2)N1` (stereo unspecified) was tested. Which XC50 did it give?
A: 919 nM

Q: For `CCCCN(CCCC)CCNC(=O)c1cc(OC(F)(F)F)ccc1O`, which XC50 is on record?
A: 920 nM

Q: With `CCCCN(CCCC)/C(=N/C(=N)NCc1ccc(Cl)c(Cl)c1)NCCCCCCN/C(=N\C(=N)NCc1ccc(Cl)c(Cl)c1)N(CCCC)CCCC` as the molecule, how does the XC50 read?
A: 399 nM

Q: With `Cc1ccc(CC(C)NCC(O)c2cccc(C(F)(F)F)c2)cc1` (stereo unspecified) as the molecule, how does the XC50 read?
A: 981 nM

Q: Which XC50 does the source give for `O=C(Nc1cccc(C(F)(F)F)c1)Nc1ccc(Cl)c(Cl)c1` here?
A: 735 nM

Q: Which XC50 does the source give for `Cc1csc(-c2nonc2NC(=O)COc2ccccc2C(C)C)n1` here?
A: 551 nM

Q: Which XC50 does the source give for `Cc1cccc2nc(-c3cccc(-c4ccc(C(=O)NCc5nccn5C)cc4)c3)[nH]c12` here?
A: 1320 nM

Q: How did the XC50 turn out when `c1ccc(Oc2cccc(Nc3ccnc4ccccc34)c2)cc1` was run?
A: 1110 nM

Q: Which XC50 does the source give for `CC1CN(c2cc(=O)n(Cc3cccc(NC(=O)Nc4ccc(-c5ccccc5)cc4)c3)cn2)CC(C)N1` (stereo unspecified) here?
A: 396 nM

Q: For `CCCCNCc1cc(Cl)c2ccccc2c1O`, which XC50 is on record?
A: 457 nM

Q: `c1cc(-c2cc3ccc(C4=NCCN4)cc3[nH]2)ccc1C1=NCCN1` was tested. Which XC50 did it give?
A: 224 nM

Q: With `CC(=O)c1cccc(Nc2nc3ccc(OCc4cc(Cl)cc(Cl)c4)c(C#N)c3[nH]2)c1` as the molecule, how does the XC50 read?
A: 869 nM

Q: `ON=C1CCc2cc(-c3[nH]c(-c4cccc(OCCNCc5ccc(F)cc5)c4)nc3-c3ccncc3)ccc21` was tested. Which XC50 did it give?
A: 890 nM

Q: `Oc1ccc(CCNc2nc(N/N=C/c3ccc(Cl)cc3)nc(N3CCNCC3)n2)cc1` was tested. Which XC50 did it give?
A: 583 nM

Q: `COc1ccc(CNCc2cccc(-c3cccc(-c4nc5cc(C(F)(F)F)ccc5[nH]4)c3)c2)cc1` was tested. Which XC50 did it give?
A: 196 nM

Q: How did the XC50 turn out when `COc1ccc2c(c1)c(C1CCN(CCCCNC(=O)c3ccc(-c4ccc(C(F)(F)F)cc4)cc3)CC1)cn2C(C)C` was run?
A: 729 nM

Q: With `CNC(=O)/C=C/c1cc(NC(=O)Nc2cc(C)nc3c(F)cccc23)ccc1OC` as the molecule, how does the XC50 read?
A: 908 nM

Q: For `O=C(CCC1CCCCC1)NCCNc1cccc2ccccc12`, which XC50 is on record?
A: 831 nM

Q: For `CN(c1ccc(NC(=O)c2cccc(F)c2)cc1)C1CCCN(Cc2cccc(O)c2)C1` (stereo unspecified), which XC50 is on record?
A: 1300 nM

Q: How did the XC50 turn out when `CC(Cc1ccc(C(=O)N2CCN(C(=O)c3ccc(CC(C)NCCc4cccc(Cl)c4)cc3)CC2)cc1)NCCc1cccc(Cl)c1` (stereo unspecified) was run?
A: 677 nM

Q: Which XC50 does the source give for `CCOc1cc2c(cc1OCC)C(c1ccc(O)c(Cl)c1)NCC2` (stereo unspecified) here?
A: 790 nM

Q: With `CN(C)Cc1cc2c(O)c(Cc3ccccc3)ccc2o1` as the molecule, how does the XC50 read?
A: 1090 nM

Q: How did the XC50 turn out when `CN1CCC(c2c[nH]c3ccc(NC(=O)Nc4ccc(-c5ccncc5)c(Cl)c4Cl)cc23)CC1` was run?
A: 696 nM

Q: `O=C(NCCCCN1CCC(c2ccc3c(c2OCCN2CCCC2)CCCC3)CC1)c1ccc(-c2ccc(C(F)(F)F)cc2)cc1` was tested. Which XC50 did it give?
A: 447 nM

Q: With `Oc1ccc(CNCCCCCCNCCc2ccc(Cl)cc2)cc1O` as the molecule, how does the XC50 read?
A: 989 nM

Q: Which XC50 does the source give for `O=C(O)c1ccc2nc(-c3ccc(-c4ccccc4)cc3)n(C3CCN(Cc4ccc(-c5ncc[nH]5)cc4)CC3)c2c1` here?
A: 1730 nM

Q: With `CN1CCN(c2cc3c(cc2Br)CCN3C(=O)Nc2ccc(-c3cnc4ccccc4c3)cc2)CC1` as the molecule, how does the XC50 read?
A: 576 nM

Q: With `Cc1cc(NCCc2ccccc2)nc(NC(=N)Nc2ccccc2Cl)n1` as the molecule, how does the XC50 read?
A: 789 nM

Q: How did the XC50 turn out when `O=C(NCCCCN1CCC(c2ccc3c(c2OC(=O)c2ccc(NC(=O)c4ccc(Cl)cc4)cc2)CCCC3)CC1)c1ccc(NC(=O)c2ccc(Cl)cc2)cc1` was run?
A: 203 nM

Q: With `COc1ccc2ncc(Cl)c([C@H](O)CN3CCC(NCc4cc5c(cn4)OCCO5)CC3)c2c1` as the molecule, how does the XC50 read?
A: 116 nM

Q: How did the XC50 turn out when `COc1cccc(OC)c1C(=O)N1CCC2(CC1)C(=O)N(CC(=O)NC1CCCCC1)CN2c1ccccc1` was run?
A: 953 nM

Q: Which XC50 does the source give for `CCCCCC(C)N/C(=N/c1ccccc1Br)Nc1ccc(C#N)cc1O` (stereo unspecified) here?
A: 751 nM

Q: How did the XC50 turn out when `CN(C)c1ccc(C(c2ccc(N(C)C)cc2)c2cc([N+](=O)[O-])ccc2Cl)cc1` was run?
A: 911 nM

Q: For `COc1cc2nc(NCCC(C)C)n3nc(-c4ccccc4)nc3c2cc1OC`, which XC50 is on record?
A: 417 nM

Q: `CCN1CCCC(CNC(=O)/C(=C/C=C/c2cc3cc(Cl)c(Cl)cc3[nH]2)OC)C1` (stereo unspecified) was tested. Which XC50 did it give?
A: 888 nM

Q: How did the XC50 turn out when `CC(C)N(C(=O)CSc1nc2cc(Cl)ccc2c(=O)n1Cc1ccccc1)C(C)C` was run?
A: 167 nM

Q: `O=C(Nc1ccc(Br)cc1)N(CCN1CCOCC1)CC(O)COCc1ccc(F)cc1` (stereo unspecified) was tested. Which XC50 did it give?
A: 1040 nM
